Patent US9969741B2, “Pyrazolotriazines as inhibitors of nucleases” (MASARYKOVA UNIVERZITA, priority 2014, dated 2018)

How the values were obtained:
[1] = biological target: T1, MRE11 (Saccharomyces cerevisiae, UniProt P32829); assay: Nuclease inhibition assay, MRE11 (5′ flap fluorescent DNA substrate, gel readout); format: biochemical, yeast; details: 5 nM enzyme, 5 nM 5′ flap substrate, 15 min at 30° C.
T1 construct: made in house; host or cells: S. cerevisiae protease-deficient strain BJ5464
T1 sequence (P32829 1-692): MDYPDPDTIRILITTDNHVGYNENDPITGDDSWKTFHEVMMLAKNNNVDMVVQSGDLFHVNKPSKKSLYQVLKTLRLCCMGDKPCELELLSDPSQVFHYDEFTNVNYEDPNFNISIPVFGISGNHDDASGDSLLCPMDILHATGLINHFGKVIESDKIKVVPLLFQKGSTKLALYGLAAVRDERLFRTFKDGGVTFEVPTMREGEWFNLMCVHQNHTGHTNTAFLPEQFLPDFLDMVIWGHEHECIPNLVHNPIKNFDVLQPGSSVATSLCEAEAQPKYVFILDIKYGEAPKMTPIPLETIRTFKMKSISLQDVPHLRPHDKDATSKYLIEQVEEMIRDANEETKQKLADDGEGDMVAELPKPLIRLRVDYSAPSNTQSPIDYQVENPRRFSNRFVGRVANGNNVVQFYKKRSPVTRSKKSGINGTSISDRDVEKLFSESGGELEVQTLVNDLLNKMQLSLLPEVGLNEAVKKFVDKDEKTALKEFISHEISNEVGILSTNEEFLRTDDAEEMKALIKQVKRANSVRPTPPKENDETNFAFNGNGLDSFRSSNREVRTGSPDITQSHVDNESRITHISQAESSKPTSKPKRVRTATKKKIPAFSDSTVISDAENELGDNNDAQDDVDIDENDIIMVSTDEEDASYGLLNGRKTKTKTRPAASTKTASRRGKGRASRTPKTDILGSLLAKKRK
Source text: (§1) In vitro assays were used for the determination of compound's IC50 values for inhibition of individual nucleases, i.e., MUS81/EME1, FEN1, EXO1, and MRE11. To generate IC50 values, concentration of compound was plotted against relative nuclease activity (in %). The dose-response curves were generated from inhibition data, from 5 point serial dilutions of inhibitory compounds, each in triplicate and fitted to a standard sigmoid curve. IC50 values were derived by standard nonlinear regression analysis.
(§2) All tested compounds were diluted in 100% DMSO (dimethylsulfoxide) to prepare working stocks with different concentrations. To keep the DMSO concentration constant in every reaction, always 0.5 μl of the compound stock was added to the reaction buffer. The reaction buffer differs depending on the enzyme tested. Also concentration of the compounds in the reaction depends on the particular enzyme, since the inhibitory effect of the compounds vary between the enzymes. Nevertheless, always doubling dilutions in the range 200-0.8 μM was used. The compound was added as the first component in the reaction buffer, followed by the enzyme addition. […]
(§3) For this experiment we prepared short fluorescently labeled oligonucleotide-based DNA substrates with specific structures reflecting the biochemical activities of tested individual nucleases (Table 1). […] For visualization, each substrate was labeled by fluorescent dye (fluorescein), which can be detected in the gel using appropriate imaging system (FLA-9000, Fuji) with filters for particular wavelengths (excitation: 485 nm, emission: 535 nm).
(§4) Nuclease assays were performed in reaction buffer specific for particular enzyme: MUS81/EME1 (50 mM Tris pH=7.5, 5 mM MgCl2, 1 mM DTT a 100 μg/ml BSA), MRE11 (30 mM Bis-Tris pH=7.0, 50 μg/ml BSA, 1 mM DTT a 250 μM MnCl2), EXO1 and FEN1 (50 mM Tris pH=7.5, 1 mM MgCl2, 1 mM DTT a 100 μg/ml BSA). […] Fluorescently labeled DNA was detected by FLA-9000 scanner (Fuji) and the result was evaluated using Multi-Gauge V3.2 software (Fuji). […]

[2] = biological target: FEN1 (Homo sapiens, UniProt P39748); assay: Nuclease inhibition assay, FEN1 (5′ flap fluorescent DNA substrate, gel readout); format: biochemical; details: 10 nM enzyme, 5 nM 5′ flap substrate, 15 min at 30° C.
Sequence of FEN1 (P39748 whole entry, species assumed): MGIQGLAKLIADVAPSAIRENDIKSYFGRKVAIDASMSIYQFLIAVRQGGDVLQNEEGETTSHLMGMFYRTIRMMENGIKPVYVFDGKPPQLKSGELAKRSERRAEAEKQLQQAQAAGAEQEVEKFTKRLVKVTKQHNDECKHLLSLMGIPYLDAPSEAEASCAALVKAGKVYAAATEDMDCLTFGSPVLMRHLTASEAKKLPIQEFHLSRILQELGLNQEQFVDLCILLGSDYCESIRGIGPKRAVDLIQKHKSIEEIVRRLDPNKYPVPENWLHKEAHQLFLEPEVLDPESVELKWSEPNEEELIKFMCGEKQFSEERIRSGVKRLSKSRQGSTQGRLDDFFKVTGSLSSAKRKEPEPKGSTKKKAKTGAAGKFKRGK
Source text: as §1, §2, §3, §4

Row | Compound | IC50 [1] | IC50 [2]
1 | CCc1nn2c(N)c(-c3nc4ccccc4[nH]3)nnc2c1-c1ccc(F)cc1 [Preparative Example 5A] | > 50 µM | > 50 µM
2 | Nc1c(-c2nc3ccccc3[nH]2)nnc2cc(-c3ccccc3)nn12 [Preparative Example 5C] | > 50 µM | > 50 µM
3 | Nc1c(-c2nc3ccccc3[nH]2)nnc2cc(-c3cccc4ccccc34)nn12 [Preparative Example 5K] | < 50 µM | > 50 µM
